What was measured:
[1] = Moisture content of powder after atmospheric spray freeze drying, original equipment; type: physicochemical; conditions: 15 wt % mannitol aqueous solution; dried 1 hr at around -15° C., then raised to room temperature within 30 minutes
Method: The apparatus is allowed to run for approximately 5 to 15 minutes to reach the desired temperature in the chamber 110, 210, 310 via gas cooled by a refrigeration system providing gas flow into the chamber 110 through the porous wall. The aqueous solution or suspension of the substances to be dried is then sprayed using the atomizer 102, 202, 302 and frozen simultaneously at a chosen temperature by the surrounding curtain of liquid nitrogen generated from ring nozzle 218, 318 or an equivalent such as cryogenic flow from nozzles 118 through porous sidewalls of chamber 110. The frozen powder is conveyed down to the exit filter 122, 222, 322 by the concurrent downstream flow. After spray freezing, drying begins. The frozen powder collected on the exit filter 122, 222, 322, at the bottom is dried continuously at atmospheric pressure until the target moisture of the frozen powder is removed by the cold desiccated gas stream. After atmospheric spray-freeze drying, a loose powder remains on the exit filter 122, 222, 322. This powder can easily be broken up into free flowing, dry porous particles usually of approximately the same size and shape as the original frozen droplets.
In one example, powder was produced using the method described above. […] The moisture content was measured to be only 0.9 wt %.

[2] = Moisture content of powder after ASFD run, second generation equipment; type: physicochemical; conditions: 10% BGG aqueous solution, 50 ml; spray gas 5 SCFM, drying 20 SCFM; after three hours and thirty minutes
Method: A typical ASFD run to dry Bovine Gamma Globulin (BGG) was conducted per a stepwise procedure like the following example. A solution of BGG was prepared such that the BGG constituted 10% by weight of an aqueous solution. Once the inner chamber was cooled to a temperature of −140° F., 50 ml of solution was sprayed at a rate of 1 ml per second and at a pressure of 40 psi into the reactor chamber after the flow of cooling gas had been decreased to 5 SCFM. A flow rate of 20 SCFM was then set for drying. Temperature during the first hour was set at 30° F., and increased by five degrees at hour two and hour three. […] After three hours and thirty minutes the powder was removed from the chamber and tested for water content.

Compound | moisture content [1] | moisture content [2]
OC[C@@H](O)[C@@H](O)[C@H](O)[C@H](O)CO [mannitol] | 0.9 wt % | 
Bovine Gamma Globulin [BGG] |  | 4.2%
